Results as given in patent US20250304537A1 (Repare Therapeutics Inc., priority 2022, published 2025).

Each compound was assayed on PKMYT1 (CDK1 pThr14) in FUOV1 cells (assay: PKMYT1 cell-based activity assay, CDK1 pThr14 AlphaLISA in FUOV1 cells). Conditions: 2 h, 2 h compound incubation, read-out: FUOV-1 CDK1 pThr14 IC50.
In short: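 FUOV1 cells were treated with PKMYT1 inhibitor for 2 h at 37 °C, then lysed. CDK1 pThr14 was measured by AlphaLISA, pairing an anti-pThr14 antibody with an anti-total CDK1 antibody (5 nM each). Signal read at 680/615 nm and used to derive IC50.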

Row | IC50 | Structure (SMILES)
1 | 3 nM | Cc1ccc(O)c(C)c1-c1nc(-c2cccnc2Nc2nccnc2C)nc(C(N)=O)c1N [Compound 727, 5-amino-6-(3-hydroxy-2,6-dimethylphenyl)-2-(2-((3-methylpyrazin-2-yl)amino)pyridin-3-yl)pyrimidine-4-carboxamide]
2 | 563 nM | Cc1cccc(-c2nc(C(N)=O)c(N)c(-c3c(C)ccc4[nH]ncc34)n2)c1Nc1ncccn1 [Compound 774]
3 | 2600 nM | Cc1ccnc(Nc2c(C)cccc2-c2nc(C(N)=O)c(N)c(-c3c(C)ccc4[nH]ncc34)n2)n1 [Compound 775]
4 | 41 nM | Cc1ccc(-c2nc(C(N)=O)c(N)c(-c3c(C)ccc4[nH]ncc34)n2)c(Nc2nnccc2C)n1 [Compound 628]
5 | 4 nM | Cc1ccc(-c2nc(C(N)=O)c(N)c(-c3c(C)ccc4[nH]ncc34)n2)c(Nc2nccnc2Cl)n1 [Compound 721]
6 | 83 nM | Cc1ccc2[nH]ncc2c1-c1nc(-c2ccc(F)nc2Nc2ncccn2)nc(C(N)=O)c1N [Compound 758]
7 | 582 nM | Cc1ccc2[nH]ncc2c1-c1nc(-c2cc(F)ccc2Nc2cnn(C)c2)nc(C(N)=O)c1N [Compound 521]
8 | 15 nM | Cc1ccc2[nH]ncc2c1-c1nc(-c2cccnc2NC2CCCOC2)nc(C(N)=O)c1N (centres unmarked) [Compound 582]
9 | 56 nM | Cc1ccc2[nH]ncc2c1-c1nc(-c2cccnc2Nc2nccnc2C)nc(C(N)=O)c1N [Compound 728]
10 | 25 nM | Cc1ccc2[nH]ncc2c1-c1nc(-c2ccc(C#N)cc2NC2CCOCC2)nc(C(N)=O)c1N [Compound 782]
11 | 55 nM | Cc1cnc(C)c(Nc2cc(F)ccc2-c2nc(C(N)=O)c(N)c(-c3c(C)ccc4[nH]ncc34)n2)n1 [Compound 719]
12 | 1320 nM | Cc1ccc2[nH]ncc2c1-c1nc(-c2cccnc2NC2CCN(C)C(=O)C2)nc(C(N)=O)c1N (centres unmarked) [Compound 549]
13 | 1330 nM | Cc1ccc2[nH]ncc2c1-c1cc2c(oc3ccc(O[C@H]4CCOC4)nc32)c(C(N)=O)c1N [Compound 574]
14 | 383 nM | Cc1ccc2[nH]ncc2c1-c1nc(-c2cccnc2NCC2(C)COC2)nc(C(N)=O)c1N [Compound 661]
15 | 19 nM | Cc1ccc2[nH]ncc2c1-c1nc(-c2cc(F)cnc2N[C@@H](C)C2CC2)nc(C(N)=O)c1N [Compound 710]
16 | 29 nM | Cc1ccc2[nH]ncc2c1-c1nc(-c2cccnc2Nc2nccnc2Cl)nc(C(N)=O)c1N [Compound 763]
17 | 198 nM | Cc1ccc2[nH]ncc2c1-c1nc(-c2cccnc2NC[C@@H]2CCCO2)nc(C(N)=O)c1N [Compound 670]
18 | 14 nM | Cc1ccc2[nH]ncc2c1-c1nc(-c2cc(F)cnc2NCC(C)(C)C#N)nc(C(N)=O)c1N [Compound 702]
19 | 11 nM | Cc1ccc2[nH]ncc2c1-c1nc(-c2ccc(F)cc2Nc2ncccc2F)nc(C(N)=O)c1N [Compound 527]
20 | 122 nM | [2H]C([2H])([2H])c1ccc2[nH]ncc2c1-c1nc(-c2cc(F)ccc2Nc2ncc(F)cn2)nc(C(N)=O)c1N [Compound 684]

Row | IC50 | Structure (SMILES)
21 | 33 nM | Cc1cccnc1Nc1ncc(F)cc1-c1nc(C(N)=O)c(N)c(-c2c(C)ccc3[nH]ncc23)n1 [Compound 672]
22 | 72 nM | Cc1ccc2[nH]ncc2c1-c1nc(-c2cccnc2NC2CCOCC2(C)C)nc(C(N)=O)c1N (centres unmarked) [Compound 596]
23 | 230 nM | Cc1ccc2[nH]ncc2c1-c1nc(-c2cccc(F)c2Nc2ncccn2)nc(C(N)=O)c1N [Compound 769]
24 | 28 nM | Cc1ccc2[nH]ncc2c1-c1nc(-c2cccnc2N[C@@H]2CCOC[C@H]2F)nc(C(N)=O)c1N [Compound 647]
25 | 7 nM | Cc1ccc2[nH]ncc2c1-c1nc(-c2cccnc2Nc2ncccc2C(F)F)nc(C(N)=O)c1N [Compound 720]
26 | 764 nM | Cc1ccc2[nH]ncc2c1-c1nc(-c2ccc(F)cc2Nc2nccc(C(F)(F)F)n2)nc(C(N)=O)c1N [Compound 572]
27 | 38 nM | Cc1ccnnc1Nc1ncccc1-c1nc(C(N)=O)c(N)c(-c2c(C)ccc3[nH]ncc23)n1 [Compound 563]
28 | 150 nM | Cc1cc(Nc2cc(F)ccc2-c2nc(C(N)=O)c(N)c(-c3c(C)ccc4[nH]ncc34)n2)nc(C)n1 [Compound 578]
29 | 151 nM | Cc1ccc2[nH]ncc2c1-c1nc(-c2ccc(F)cc2Nc2ncc(C#N)cn2)nc(C(N)=O)c1N [Compound 535]
30 | 77 nM | Cc1ccc2[nH]ncc2c1-c1nc(-c2cccnc2NCCC#N)nc(C(N)=O)c1N [Compound 542]
31 | 9 nM | Cc1ccnnc1Nc1cc(F)ccc1-c1nc(C(N)=O)c(N)c(-c2c(C)ccc3[nH]ncc23)n1 [Compound 540]
32 | 2 nM | Cc1ccc2[nH]ncc2c1-c1nc(-c2cccnc2Nc2nc(F)ccc2Cl)nc(C(N)=O)c1N [Compound 752]
33 | 97 nM | COc1ccc(-c2nc(C(N)=O)c(N)c(-c3c(C)ccc4[nH]ncc34)n2)c(Nc2ncccn2)c1 [Compound 636]
34 | 53 nM | Cc1ccc2[nH]ncc2c1-c1nc(-c2cccnc2NC2CC(F)(F)C2)nc(C(N)=O)c1N [Compound 675]
35 | 69 nM | Cc1cc(Nc2cc(F)ccc2-c2nc(C(N)=O)c(N)c(-c3c(C)ccc4[nH]ncc34)n2)ncn1 [Compound 524]
36 | 251 nM | Cc1ccc2[nH]ncc2c1-c1nc(-c2cc(F)c(F)cc2NC2CCS(=O)(=O)CC2)nc(C(N)=O)c1N [Compound 529]
37 | 7 nM | Cc1ccc(C#N)nc1Nc1ncccc1-c1nc(C(N)=O)c(N)c(-c2c(C)ccc3[nH]ncc23)n1 [Compound 740]
38 | 465 nM | Cc1ccc2[nH]ncc2c1-c1nc(-c2cc(F)c(F)cc2NCc2cccnc2)nc(C(N)=O)c1N [Compound 496]
39 | 773 nM | Cc1ccc2[nH]ncc2c1-c1nc(-c2cc(F)cnc2NC2CCC(F)(F)CC2)nc(C(N)=O)c1N [Compound 731]

Same assay, conditions: 2 h, 2 h incubation, read-out: FUOV-1 CDK1 pThr14 IC50

Row | IC50 | Structure (SMILES)
40 | 13 nM | [2H]C([2H])([2H])c1ccc2[nH]ncc2c1-c1nc(-c2ccc(C3CC3)nc2Nc2ncccc2F)nc(C(N)=O)c1N [Compound 47]

Same assay, conditions: 2 h, 2 hours with compound, read-out: FUOV-1 CDK1 pThr14 IC50

Row | IC50 | Structure (SMILES)
41 | 8 nM | NC(=O)c1nc(-c2ccc(Cl)nc2Nc2ncccc2F)nc(-c2c(F)ccc3[nH]ncc23)c1N [Compound 965]
42 | 11 nM | Cc1ncc(F)c(Nc2nc(F)ccc2-c2nc(C(N)=O)c(N)c(-c3c(C)ccc4[nH]ncc34)n2)n1 [Compound 954, 5-amino-2-(6-fluoro-2-((5-fluoro-2-methylpyrimidin-4-yl)amino)pyridin-3-yl)-6-(5-methyl-1H-indazol-4-yl)pyrimidine-4-carboxamide]
43 | 10 nM | Cc1c(F)cc2[nH]ncc2c1-c1nc(-c2ccc(F)cc2Nc2ncccc2C#N)nc(C(N)=O)c1N [Compound 865]
44 | 1 nM | Cc1ccc(-c2nc(C(N)=O)c(N)c(-c3c(F)ccc4[nH]ncc34)n2)c(Nc2ncccc2F)n1 [Compound 952]
45 | 5 nM | Cc1ccc(F)c(Nc2nc(F)ccc2-c2nc(C(N)=O)c(N)c(-c3c(C)c(F)cc4[nH]ncc34)n2)n1 [Compound 850]
46 | 14 nM | [2H]C([2H])([2H])c1ccc2[nH]ncc2c1-c1nc(-c2ccc(F)nc2Nc2nc(C)ncc2F)nc(C(N)=O)c1N [Compound 972]
47 | 9 nM | Cc1ccc2[nH]ncc2c1-c1nc(-c2cc(Cl)ncc2Nc2ncccc2F)nc(C(N)=O)c1N [Compound 939]
48 | 16 nM | Cc1ccc2[nH]ncc2c1-c1nc(-c2ccncc2Nc2ncccn2)nc(C(N)=O)c1N [Compound 951]
49 | 11 nM | [2H]C([2H])([2H])c1ccc2[nH]ncc2c1-c1nc(-c2ccc(Cl)nc2Nc2nccnc2F)nc(C(N)=O)c1N [Compound 966]
50 | 53 nM | [2H]C([2H])([2H])c1ccc2[nH]ncc2c1-c1nc(-c2ccc(C(F)F)nc2Nc2nc(C)ncc2F)nc(C(N)=O)c1N [Compound 973]
51 | 107 nM | Cc1cc(F)c2[nH]ncc2c1-c1nc(-c2ccc(C(F)F)nc2Nc2nccnc2Cl)nc(C(N)=O)c1N [Compound 909]
52 | 28 nM | Cc1ccc2[nH]ncc2c1-c1nc(-c2ccc(Cl)nc2Nc2ncccc2C(F)F)nc(C(N)=O)c1N [Compound 944]
53 | 164 nM | Cn1cc(-c2nc(C(N)=O)c(N)c(-c3c(Cl)ccc4[nH]ncc34)n2)c(NC2CCOCC2)n1 [Compound 915]
54 | > 10000 nM | Cc1ccc2[nH]ncc2c1-c1nc(-c2cc(F)cnc2N[C@@H]2CCOC[C@H]2O)nc(C(N)=O)c1N [Compound 799, 5-amino-2-(5-fluoro-2-(((3S,4R)-3-hydroxytetrahydro-2H-pyran-4-yl)amino)pyridin-3-yl)-6-(5-methyl-1H-indazol-4-yl)pyrimidine-4-carboxamide]
55 | 200 nM | Cc1ccc2[nH]ncc2c1-c1nc(-c2cn(C(F)(F)F)nc2NC2CCOCC2)nc(C(N)=O)c1N [Compound 910]
56 | 702 nM | [2H]C([2H])([2H])c1ccc2[nH]ncc2c1-c1nc(-c2cccnc2NC23CC(C(N)=O)(C2)C3)nc(C(N)=O)c1N [Compound 962, 5-amino-2-(2-((3-carbamoylbicyclo[1.1.1]pentan-1-yl)amino)pyridin-3-yl)-6-(5-(methyl-d3)-1H-indazol-4-yl)pyrimidine-4-carboxamide]
57 | 71 nM | Cc1ccc2[nH]ncc2c1-c1nc(-c2cc(F)cnc2N[C@@H]2COC[C@@H]2O)nc(C(N)=O)c1N [Compound 814]
58 | 36 nM | Cc1ccc2[nH]ncc2c1-c1nc(-c2cc(F)cnc2N[C@@H]2CCOCC2(F)F)nc(C(N)=O)c1N [Compound 883]
59 | > 10000 nM | Cc1ccc2[nH]ncc2c1-c1nc(-c2ccccc2-c2ccn[nH]2)nc(C(N)=O)c1N [Compound 816]

Same assay, conditions: 2 h compound incubation, read-out: FUOV-1 CDK1 pThr14 IC50

Row | IC50 | Structure (SMILES)
60 | 122 nM | Cc1ccc2[nH]ncc2c1-c1nc(-c2cccnc2Nc2cccnc2)nc(C(N)=O)c1N [Compound 768]

Same assay, conditions: 2 h incubation, read-out: FUOV-1 CDK1 pThr14 IC50

Row | IC50 | Structure (SMILES)
61 | 179 nM | Cc1ccc(O)c(C)c1-c1nc(-c2ccnnc2)cc(C(N)=O)c1N [Compound 77]

Same assay, conditions: 2 hours with compound, read-out: FUOV-1 CDK1 pThr14 IC50

Row | IC50 | Structure (SMILES)
62 | 76 nM | Cc1ccc2[nH]ncc2c1-c1nc(-c2cc(F)cnc2N[C@@H]2C[C@H]3CC[C@@H]2O3)nc(C(N)=O)c1N [Compound 898]
